Measurements: article PMC11390765 (Cancer Chemotherapy and Pharmacology, 2024)

Test: Safety and tolerability (adverse events, CTCAE v5.0; full analysis set)
Format: in vivo, human
Method: Safety and tolerability were evaluated in terms of AEs, which were classified and graded according to the National Cancer Institute (NCI) Common Terminology Criteria for Adverse Events (CTCAE) v5.0; vital signs; 12-lead electrocardiogram (ECG); and clinical laboratory assessments, including clinical chemistry and hematology parameters, urinalysis, HbA1c levels, and lipid profiles.
Efficacy analyses were also performed on the full analysis set. Summary and/or descriptive statistics were used to analyze baseline demographic, safety, and efficacy data; PFS and DoR were estimated using Kaplan–Meier methodology.

[1] = part B period 4, capivasertib only 400 mg BID, N=19
[2] = period 2, days 2–7 cycle 1, capivasertib only 400 mg BID, N=21
[3] = total, all treatment periods, N=21

SMILES: NC1(C(=O)N[C@@H](CCO)c2ccc(Cl)cc2)CCN(c2nc[nH]c3nccc2-3)CC1 [capivasertib]
- QT prolongation (ECG, whole study): no reports of QT prolongation
- patients requiring a capivasertib dose interruption due to AEs (N = 21): 66.7%
- patients requiring a capivasertib dose reduction due to AEs (N = 21): 23.8%
- patients with AEs leading to permanent discontinuation of capivasertib (N = 21): Three
- safety profile (administered with or without midazolam): manageable safety profile
- Anemia, frequency of patients overall (all treatment periods, N = 21): 28.6%
- Diarrhea, frequency of patients overall (all treatment periods, N = 21): 76.2%
- Fatigue, frequency of patients overall (all treatment periods, N = 21): 33.3%
- Hyperglycemia, frequency of patients overall (all treatment periods, N = 21): 28.6%
- Nausea, frequency of patients overall (all treatment periods, N = 21): 33.3%
- patients who experienced grade 3 AEs (in total, N = 21): 57.1%
- patients who experienced grade ≥ 3 AEs (in total, N = 21): 66.7%
- serious AEs (SAEs) reported in the study (n = 1 period 2, n = 1 period 3, n = 3 part B, only one considered related to study treatment): five
- deaths during the study (one in part A, three in part B, none deemed possibly related to study treatment): four
- Abdominal pain, any grade [1]: 1 (5.3) n (%)
- Abdominal pain, grade ≥ 3 [1]: 1 (5.3) n (%)
- Anemia, any grade [1]: 4 (21.1) n (%)
- Anemia, grade ≥ 3 [1]: 0 n (%)
- Any AE, any grade [1]: 17 (89.5) n (%)
- Any AE, grade ≥ 3 [1]: 9 (47.4) n (%)
- Asthenia, any grade [1]: 2 (10.5) n (%)
- Asthenia, grade ≥ 3 [1]: 1 (5.3) n (%)
- Blood alkaline phosphatase increased, any grade [1]: 0 n (%)
- Blood alkaline phosphatase increased, grade ≥ 3 [1]: 0 n (%)
- Blood bilirubin increased, any grade [1]: 2 (10.5) n (%)
- Blood bilirubin increased, grade ≥ 3 [1]: 1 (5.3) n (%)
- Blood creatinine increased, any grade [1]: 3 (15.8) n (%)
- Blood creatinine increased, grade ≥ 3 [1]: 0 n (%)
- COVID-19, any grade [1]: 1 (5.3) n (%)
- COVID-19, grade ≥ 3 [1]: 1 (5.3) n (%)
- Decreased appetite, any grade [1]: 4 (21.1) n (%)
- Decreased appetite, grade ≥ 3 [1]: 2 (10.5) n (%)
- Diarrhea, any grade [1]: 7 (36.8) n (%)
- Diarrhea, grade ≥ 3 [1]: 1 (5.3) n (%)
- Fatigue, any grade [1]: 4 (21.1) n (%)
- Fatigue, grade ≥ 3 [1]: 2 (10.5) n (%)
- Gamma-glutamyl transferase increased, any grade [1]: 1 (5.3) n (%)
- Gamma-glutamyl transferase increased, grade ≥ 3 [1]: 1 (5.3) n (%)
- Hyperglycemia, any grade [1]: 3 (15.8) n (%)
- Hyperglycemia, grade ≥ 3 [1]: 0 n (%)
- Hypoalbuminemia, any grade [1]: 0 n (%)
- Hypoalbuminemia, grade ≥ 3 [1]: 0 n (%)
- Hypokalemia, any grade [1]: 3 (15.8) n (%)
- Hypokalemia, grade ≥ 3 [1]: 1 (5.3) n (%)
- Hyponatremia, any grade [1]: 3 (15.8) n (%)
- Hyponatremia, grade ≥ 3 [1]: 1 (5.3) n (%)
- Hypotension, any grade [1]: 3 (15.8) n (%)
- Hypotension, grade ≥ 3 [1]: 1 (5.3) n (%)
- Large intestinal obstruction, any grade [1]: 1 (5.3) n (%)
- Large intestinal obstruction, grade ≥ 3 [1]: 1 (5.3) n (%)
- Lymphocyte count decreased, any grade [1]: 2 (10.5) n (%)
- Lymphocyte count decreased, grade ≥ 3 [1]: 0 n (%)
- Nausea, any grade [1]: 4 (21.1) n (%)
- Nausea, grade ≥ 3 [1]: 0 n (%)
- Rash (group term), any grade [1]: 2 (10.5) n (%)
- Rash (group term), grade ≥ 3 [1]: 0 n (%)
- Sepsis, any grade [1]: 1 (5.3) n (%)
- Sepsis, grade ≥ 3 [1]: 1 (5.3) n (%)
- Thrombocytopenia, any grade [1]: 0 n (%)
- Thrombocytopenia, grade ≥ 3 [1]: 0 n (%)
- Ureteric obstruction, any grade [1]: 1 (5.3) n (%)
- Ureteric obstruction, grade ≥ 3 [1]: 1 (5.3) n (%)
- Urticaria, any grade [1]: 0 n (%)
- Urticaria, grade ≥ 3 [1]: 0 n (%)
- patients who experienced a grade 5 AE (sepsis) (part B, not considered related to capivasertib or midazolam): 4.8%
- Abdominal pain, any grade [2]: 1 (4.8) n (%)
- Abdominal pain, grade ≥ 3 [2]: 0 n (%)
- Anemia, any grade [2]: 2 (9.5) n (%)
- Anemia, grade ≥ 3 [2]: 1 (4.8) n (%)
- Any AE, any grade [2]: 10 (47.6) n (%)
- Any AE, grade ≥ 3 [2]: 3 (14.3) n (%)
- Asthenia, any grade [2]: 1 (4.8) n (%)
- Asthenia, grade ≥ 3 [2]: 0 n (%)
- Blood alkaline phosphatase increased, any grade [2]: 0 n (%)
- Blood alkaline phosphatase increased, grade ≥ 3 [2]: 0 n (%)
- Blood bilirubin increased, any grade [2]: 0 n (%)
- Blood bilirubin increased, grade ≥ 3 [2]: 0 n (%)
- Blood creatinine increased, any grade [2]: 0 n (%)
- Blood creatinine increased, grade ≥ 3 [2]: 0 n (%)
- COVID-19, any grade [2]: 0 n (%)
- COVID-19, grade ≥ 3 [2]: 0 n (%)
- Decreased appetite, any grade [2]: 0 n (%)
- Decreased appetite, grade ≥ 3 [2]: 0 n (%)
- Diarrhea, any grade [2]: 6 (28.6) n (%)
- Diarrhea, grade ≥ 3 [2]: 0 n (%)
- Fatigue, any grade [2]: 0 n (%)
- Fatigue, grade ≥ 3 [2]: 0 n (%)
- Gamma-glutamyl transferase increased, any grade [2]: 0 n (%)
- Gamma-glutamyl transferase increased, grade ≥ 3 [2]: 0 n (%)
- Hyperglycemia, any grade [2]: 1 (4.8) n (%)
- Hyperglycemia, grade ≥ 3 [2]: 0 n (%)
- Hypoalbuminemia, any grade [2]: 1 (4.8) n (%)
- Hypoalbuminemia, grade ≥ 3 [2]: 1 (4.8) n (%)
- Hypokalemia, any grade [2]: 1 (4.8) n (%)
- Hypokalemia, grade ≥ 3 [2]: 0 n (%)
- Hyponatremia, any grade [2]: 1 (4.8) n (%)
- Hyponatremia, grade ≥ 3 [2]: 0 n (%)
- Hypotension, any grade [2]: 0 n (%)
- Hypotension, grade ≥ 3 [2]: 0 n (%)
- Large intestinal obstruction, any grade [2]: 0 n (%)
- Large intestinal obstruction, grade ≥ 3 [2]: 0 n (%)
- Lymphocyte count decreased, any grade [2]: 1 (4.8) n (%)
- Lymphocyte count decreased, grade ≥ 3 [2]: 1 (4.8) n (%)
- Nausea, any grade [2]: 2 (9.5) n (%)
- Nausea, grade ≥ 3 [2]: 0 n (%)
- Rash (group term), any grade [2]: 0 n (%)
- Rash (group term), grade ≥ 3 [2]: 0 n (%)
- Sepsis, any grade [2]: 0 n (%)
- Sepsis, grade ≥ 3 [2]: 0 n (%)
- Thrombocytopenia, any grade [2]: 1 (4.8) n (%)
- Thrombocytopenia, grade ≥ 3 [2]: 1 (4.8) n (%)
- Ureteric obstruction, any grade [2]: 0 n (%)
- Ureteric obstruction, grade ≥ 3 [2]: 0 n (%)
- Urticaria, any grade [2]: 0 n (%)
- Urticaria, grade ≥ 3 [2]: 0 n (%)
- Abdominal pain, any grade [3]: 2 (9.5) n (%)
- Abdominal pain, grade ≥ 3 [3]: 1 (4.8) n (%)
- Anemia, any grade [3]: 6 (28.6) n (%)
- Anemia, grade ≥ 3 [3]: 1 (4.8) n (%)
- Any AE, any grade [3]: 21 (100) n (%)
- Any AE, grade ≥ 3 [3]: 14 (66.7) n (%)
- Asthenia, any grade [3]: 3 (14.3) n (%)
- Asthenia, grade ≥ 3 [3]: 1 (4.8) n (%)
- Blood alkaline phosphatase increased, any grade [3]: 1 (4.8) n (%)
- Blood alkaline phosphatase increased, grade ≥ 3 [3]: 1 (4.8) n (%)
- Blood bilirubin increased, any grade [3]: 2 (9.5) n (%)
- Blood bilirubin increased, grade ≥ 3 [3]: 1 (4.8) n (%)
- Blood creatinine increased, any grade [3]: 3 (14.3) n (%)
- Blood creatinine increased, grade ≥ 3 [3]: 0 n (%)
- COVID-19, any grade [3]: 2 (9.5) n (%)
- COVID-19, grade ≥ 3 [3]: 1 (4.8) n (%)
- Decreased appetite, any grade [3]: 5 (23.8) n (%)
- Decreased appetite, grade ≥ 3 [3]: 2 (9.5) n (%)
- Diarrhea, any grade [3]: 16 (76.2) n (%)
- Diarrhea, grade ≥ 3 [3]: 1 (4.8) n (%)
- Fatigue, any grade [3]: 7 (33.3) n (%)
- Fatigue, grade ≥ 3 [3]: 2 (9.5) n (%)
- Gamma-glutamyl transferase increased, any grade [3]: 1 (4.8) n (%)
- Gamma-glutamyl transferase increased, grade ≥ 3 [3]: 1 (4.8) n (%)
- Hyperglycemia, any grade [3]: 6 (28.6) n (%)
- Hyperglycemia, grade ≥ 3 [3]: 1 (4.8) n (%)
- Hypoalbuminemia, any grade [3]: 1 (4.8) n (%)
- Hypoalbuminemia, grade ≥ 3 [3]: 1 (4.8) n (%)
- Hypokalemia, any grade [3]: 5 (23.8) n (%)
- Hypokalemia, grade ≥ 3 [3]: 1 (4.8) n (%)
- Hyponatremia, any grade [3]: 4 (19.0) n (%)
- Hyponatremia, grade ≥ 3 [3]: 1 (4.8) n (%)
- Hypotension, any grade [3]: 4 (19.0) n (%)
- Hypotension, grade ≥ 3 [3]: 1 (4.8) n (%)
- Large intestinal obstruction, any grade [3]: 1 (4.8) n (%)
- Large intestinal obstruction, grade ≥ 3 [3]: 1 (4.8) n (%)
- Lymphocyte count decreased, any grade [3]: 3 (14.3) n (%)
- Lymphocyte count decreased, grade ≥ 3 [3]: 1 (4.8) n (%)
- Nausea, any grade [3]: 7 (33.3) n (%)
- Nausea, grade ≥ 3 [3]: 0 n (%)
- Rash (group term), any grade [3]: 8 (38.1) n (%)
- Rash (group term), grade ≥ 3 [3]: 3 (14.3) n (%)
- Sepsis, any grade [3]: 1 (4.8) n (%)
- Sepsis, grade ≥ 3 [3]: 1 (4.8) n (%)
- Thrombocytopenia, any grade [3]: 1 (4.8) n (%)
- Thrombocytopenia, grade ≥ 3 [3]: 1 (4.8) n (%)
- Ureteric obstruction, any grade [3]: 1 (4.8) n (%)
- Ureteric obstruction, grade ≥ 3 [3]: 1 (4.8) n (%)
- Urticaria, any grade [3]: 1 (4.8) n (%)
- Urticaria, grade ≥ 3 [3]: 1 (4.8) n (%)
- patients who experienced a grade 4 AE (thrombocytopenia) (treatment period 2, not considered related to capivasertib or midazolam): 4.8%
